The test system of series [1] is Rat cortical neurons transfected with TyrRS siRNA. Put plainly: TyrRS siRNA knockdown, then excitotoxic NMDA, MTT assay. The series is classed as cell-based. The following applies: 24 hours. As for the experimental part: Cells viability was assessed using MTT assay. […] Cells were then exposed to excitotoxic NMDA (500 μM for 5 minutes), and viability was assessed using MTT assay after 24 hours.
Primary cortical neuron cultures were obtained from E18 Sprague Dawley rats' cortices, which were dissected in Hibernate E (BrainBits) and dissociated using the Neural Tissue Dissociation kit (Miltenyi Biotec). For this, minced cortices were incubated in a pre-warmed enzyme mix at 37° C. for 15 min; tissues were then triturated and strained using a 40 μm cell strainer. After washing and centrifugation, neurons were seeded in 50 μg/ml poly-D-Lysine (Sigma Aldrich) coated tissue culture plates. NBActive-1 medium (BrainBits) supplemented with 100 U/ml of Penicillin-Streptomycin (Life Technologies), 2 mM L-Glutamine (Life Technologies), and 1 X N21 supplement (R&D Systems) was used as culture medium. Control (AM4635), TyrRS (s443), PARP1 (s130207) siRNA for transfection were obtained from Invitrogen. On 5 DIV, rat cortical neurons were transfected with 75 nM control or TyrRS siRNA using Dharmafect 3 Transfection Reagent. A second transfection was done two days later using 75 nM of TyrRS siRNA, followed by cell collection or assays after another 48 hours. For PARP1 siRNA, on 7 DIV, neurons were transfected with 75 nM siRNA for both control and PARP1 siRNA.
Rat cortical neurons (DIV 10-11) were exposed to different treatments after seeding 20,000 cells/well in 96-well plates. Cell viability was then assessed at 48 hours after the initial exposure to NMDA. 3-[4,5-dimethylthiazole-2-yl]-2,5-diphenyltetrazolium bromide (MTT) assays were used to assess change in cell viability. Cultured rat cortical neurons were incubated with MTT (0.5 mg/mL). […] The percentage of MTT reduced as measured by the difference between the absorbances at 570 nm read in a spectrophotometer (Spectramax 190R Molecular Devices, UK). The percentage of reduction of MTT was calculated comparing the difference of the absorbance at 570 of each sample. […]

Another series relates to 8-oxo-2′-dG. Put plainly: Quantification of 8-oxo-2′-dG (oxidation level of neuronal DNA). The series is classed as cell-based, rat. The following applies: 50 μM, 16 hours. From the text:
Although Aβ exacerbates neuronal DNA damage through an unknown mechanism, see Suberbielle, E. et al. Physiologic brain activity causes DNA double-strand breaks in neurons, with exacerbation by amyloid-beta. […] Elife 7, doi:ARTN e34334 10.7554/eLife.34334 (2018), and (see FIG. 7 at (b)). […] Mol Cell 65, 932-940 e936, doi:10.1016/j.molcel.2017.01.003 (2017), in a time-dependent manner (see FIG. 7 at (c)). […] Representative immunoblots and quantification for the auto-PARylation level of PARP1 after the siRNA knockdown of TyrRS.

A further series relates to pSer10-H3. Put plainly: Immunostaining of pSer10-H3 (ADP-ribosylation dependent DNA repair marker). The series is classed as cell-based, rat. Particulars: pre-treated 50 μM 16 hours, then Aβ 50 nM 24 hours. From the text: Ac-K56-H3 is a marker of genomic stability, see Driscoll, R., Hudson, A. & Jackson, S. P. Yeast Rtt109 promotes genome stability by acetylating histone H3 on lysine 56. Science 315, 649-652, doi:10.1126/science.1135862 (2007), and DNA damage, see Tjeertes, J. V., Miller, K. M. & Jackson, S. P. Screen for DNA-damage-responsive histone modifications identifies H3K9Ac and H3K56Ac in human cells. EMBO J 28, 1878-1889, doi:10.1038/emboj.2009.119 (2009), and inhibition of PARP1 causes the downregulation of RAD51, see Hegan, D. C. et al. Inhibition of poly(ADP-ribose) polymerase down-regulates BRCA1 and RAD51 in a pathway mediated by E2F4 and p130. Proc Natl Acad Sci U S A 107, 2201-2206, doi:10.1073/pnas.0904783107 (2010), and induces neurotoxicity, see Diaz-Hernandez, J. I., Moncada, S., Bolanos, J. P. & Almeida, A. Poly(ADP-ribose) polymerase-1 protects neurons against apoptosis induced by oxidative stress. Cell Death Differ 14, 1211-1221, doi:10.1038/sj.cdd.4402117 (2007) and Midorikawa, R., Takei, Y. & Hirokawa, N. KIF4 motor regulates activity-dependent neuronal survival by suppressing PARP-1 enzymatic activity. Cell 125, 371-383, doi:10.1016/j.cell.2006.02.039 (2006). […] The western blot images of the protein levels of HPF1 was quantified using ImageJ.
Coverslips were then mounted using DAPI (4′,6-diamidino-2-phenylindole)-supplemented mounting medium, Prolong Gold Antifade (Invitrogen) imaged with Leica DMI6000 epifluorescent microscope at 63×magnification.

A short description of series [2]: Spectral analysis (absorption spectrum) of cis- and trans-RSV conformation in solution. Particulars: for peak absorption: lower concentrations (≤10 μM), range 250-400 nm. The series is classed as physicochemical. The protocol: Nature 519, 370-373, doi:10.1038/nature14028 (2015). […] Mol Nutr Food Res 63, e1800715, doi:10.1002/mnfr.201800715 (2019). […] Commercially available cis- and trans-RSV were dissolved in ethanol to generate the stock solutions. […] The dilutions were done in the dark and samples were protected from light. […] Low dose trans-RSV evokes a paradoxical shift in equilibrium towards the cis conformation in solution.
Each stock was diluted 1000× in DMSO to prepare different stocks to obtain the final working solutions and micromolar concentrations to obtain the absorption spectrum. The control solution was prepared using ethanol and DMSO (0.1% ethanol). Absorption was measured using Spectramax 300R at room temperature. Stock solutions were stored at −20° C., and the working solutions were prepared fresh and protected from light during the preparation.

In the case of `Oc1ccc(/C=C\c2cc(O)cc(O)c2)cc1` [cis-RSV, cis-resveratrol], the “effect of TyrRS knockdown on viability under excitotoxic NMDA” value in series [1] (cis-RSV 50 μM) is “blunted the neuroprotective effect”. Also, in the series on 8-oxo-2′-dG, the “levels of 8-oxo-dG” value is “downregulated both the protein levels of OGG1 and the levels of 8-oxo-dG”. Moreover, the pSer10-H3 levels result in the series on pSer10-H3 is on record as “reduced pSer10-H3 levels”. In series [2], this molecule registered a specific absorption peak of 295 nm and a peak absorption of 295 nm. The conformation in solution entry in series [2] (cis-RSV, 5-50 μM) is on record as “retains its conformation across the different doses”.

Regarding `Oc1ccc(/C=C/c2cc(O)cc(O)c2)cc1` [trans-RSV, trans-resveratrol], the “effect of TyrRS knockdown on viability under excitotoxic NMDA” value in series [1] (low dose trans-RSV 5, 10 μM) is “blunted the neuroprotective effect”. Also, the “effect of TyrRS knockdown on toxic effects under excitotoxic NMDA” value in series [1] (trans-RSV 50 μM) is “exacerbated the toxic effects”. Besides, the “levels of 8-oxo-dG” value in the series with 8-oxo-2′-dG is on record as “upregulated the levels of 8-oxo-2′-deoxyguanosine (8-oxo-dG)”. For the same molecule, the pSer10-H3 levels entry with pSer10-H3 is recorded as “upregulation”. The molecule also gave a specific absorption peak in series [2] of 330 nm. Moreover, the conformation in solution entry in series [2] (concentrations ≤10 μM, in DMSO, protected from light) is reported as “exists majorly in cis-RSV conformation”; in series [2] (high dose (≥25 μM)) it was “retains its trans conformation”. Further, the peak absorption in series [2] is 295 nm.

The values are drawn from patent US20240342111A1, “ISOMER-SPECIFIC NEUROPROTECTIVE EFFECT OF NATURAL RESERVATROL” (priority 2021, published 2024).
